Consider 19 compounds from patent publication US5700804A, “Pharmaceutical compounds” (Xenova Limited, priority 1992, dated 1997).

This experiment deals with PAI-1 (Homo sapiens, UniProt P05121). Briefly: PAI chromogenic substrate assay (first S2251 assay, tPA/plasminogen system). The experiment is classed as biochemical. How it is done: In this assay, a compound is incubated with PAI-1 prior to addition to the tPA assay system. Inhibition of PAI-1 results in the production of plasmin from plasminogen. In turn, plasmin cleaves the chromogenic substrate S2251 (Kabi Vitrum) producing pNA (p-nitroaniline) which is detected spectrophotometrically at 405 nm (K. Nilsson et al, Fibrinolysis (1987) 1, 163-168).
Compounds of formula (A) were tested in a PAI chromogenic substrate assay. In the first assay (K. Nilsson, Fibrinolysis (1987) 1, 163-168) each compound was incubated with PAI-1 prior to addition to the tPA assay system. […] In turn, the plasmin cleaved the chromogenic substrate S2251 (Kabi-Vitrum) producing pNA (p-nitroaniline) which was detected spectrophotometrically at 405 nm.

PAI-1, sequence (P05121 24-402): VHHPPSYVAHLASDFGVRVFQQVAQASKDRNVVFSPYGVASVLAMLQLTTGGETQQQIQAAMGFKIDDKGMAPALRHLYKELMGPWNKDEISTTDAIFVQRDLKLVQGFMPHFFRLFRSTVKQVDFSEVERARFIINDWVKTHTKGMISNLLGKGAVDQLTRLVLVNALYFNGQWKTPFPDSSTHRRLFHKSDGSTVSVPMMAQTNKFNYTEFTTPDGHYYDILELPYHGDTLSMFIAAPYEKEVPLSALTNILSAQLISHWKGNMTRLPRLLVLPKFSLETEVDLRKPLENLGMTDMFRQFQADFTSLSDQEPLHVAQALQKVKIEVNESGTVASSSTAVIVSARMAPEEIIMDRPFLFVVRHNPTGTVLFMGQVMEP

With `COc1ccc(/C=c2\[nH]c(=O)/c(=C/c3ccc(C(N)=O)cc3)[nH]c2=O)cc1` [Compound 80, 4-[(3Z,6Z)-6-(4-Methoxybenzylidene)-2,5-dioxopiperazin-3-ylidene]methylbenzamide], the Inhibition of PAI-1 in the first S2251 chromogenic substrate assay runs as follows: (Concentration 12.5 μm) 0%; (Concentration 25 μm) 1%; (Concentration 50 μm) 9%; (Concentration 100 μm) 53%.

`COc1ccc(/C=c2\[nH]c(=O)/c(=C/c3ccc(OC(C)C)cc3)[nH]c2=O)cc1` [Compound 49, (3Z,6Z)-3-(4-isopropoxybenzylidene)-6-(4-methoxybenzylidene)-2,5-piperazinedione] came in with an Inhibition of PAI-1 in the first S2251 chromogenic substrate assay (Concentration 12.5 μm) of 1%, an Inhibition of PAI-1 in the first S2251 chromogenic substrate assay (Concentration 25 μm) of 8%, an Inhibition of PAI-1 in the first S2251 chromogenic substrate assay (Concentration 50 μm) of 47% and an Inhibition of PAI-1 in the first S2251 chromogenic substrate assay (Concentration 100 μm) of 60%.

On to `COc1ccc(/C=c2\[nH]c(=O)/c(=C/c3ccc(N(C)C(C)=O)cc3)[nH]c2=O)cc1` [Compound 41, (3Z,6Z)-3-(4-Methoxybenzylidene)-6-(4-N-methylacetamidobenzylidene)-2,5-piperazinedione], for which the Inhibition of PAI-1 in the first S2251 chromogenic substrate assay stood at 3% (Concentration 6.25 μm); 8% (Concentration 12.5 μm); 32% (Concentration 25 μm); 45% (Concentration 50 μm); 51% (Concentration 100 μm).

With `COc1ccc(/C=c2\[nH]c(=O)/c(=C/c3ccc(CSC)cc3)[nH]c2=O)cc1` [Compound 57, (3Z,6Z)-3-(4-Methoxybenzylidene)-6-(4-methylthiomethylbenzylidene)-2,5-piperazinedione], the Inhibition of PAI-1 in the first S2251 chromogenic substrate assay stood at 2% (Concentration 12.5 μm), 38% (Concentration 25 μm), 72% (Concentration 50 μm) and 82% (Concentration 100 μm).

Compound `O=C(O)CCCCOc1ccc(/C=c2\[nH]c(=O)/c(=C/c3ccccc3)[nH]c2=O)cc1` [Compound 97, 5-[4-((3Z,6Z)-6-Benzylidene-2,5-dioxopiperazin-3-ylidene)methylphenoxy]pentanoic acid] returned an Inhibition of PAI-1 in the first S2251 chromogenic substrate assay (Concentration 6.25 μm) of 0%; an Inhibition of PAI-1 in the first S2251 chromogenic substrate assay (Concentration 12.5 μm) of 0%; an Inhibition of PAI-1 in the first S2251 chromogenic substrate assay (Concentration 25 μm) of 73%; an Inhibition of PAI-1 in the first S2251 chromogenic substrate assay (Concentration 50 μm) of 24%; an Inhibition of PAI-1 in the first S2251 chromogenic substrate assay (Concentration 100 μm) of 0%.

With `O=c1[nH]/c(=C\c2ccccc2)c(=O)[nH]/c1=C\c1ccccc1` [Compound 45, (3Z,6Z)-3,6-Dibenzylidene-2,5-piperazinedione], the Inhibition of PAI-1 in the first S2251 chromogenic substrate assay is, setting by setting: (Concentration 12.5 μm) 1%; (Concentration 25 μm) 1%; (Concentration 50 μm) 13%; (Concentration 100 μm) 53%.

In the case of `COc1ccc(/C=c2\[nH]c(=O)/c(=C/c3ccc(OC)cc3OC)[nH]c2=O)cc1` [Compound 73, (3Z,6Z)-3-(2,4-Dimethoxybenzylidene)-6-(4-methoxybenzylidene)-2,5-piperazinedione], the Inhibition of PAI-1 in the first S2251 chromogenic substrate assay turned out to be 2% (Concentration 12.5 μm), 1% (Concentration 25 μm), 3% (Concentration 50 μm) and 50% (Concentration 100 μm).

Regarding `COc1ccc(/C=c2\[nH]c(=O)/c(=C/c3ccc(NC(C)=O)cc3)[nH]c2=O)cc1OC` [Compound 92], the Inhibition of PAI-1 in the first S2251 chromogenic substrate assay by setting is: (Concentration 6.25 μm) 17%; (Concentration 12.5 μm) 12%; (Concentration 25 μm) 38%; (Concentration 50 μm) 44%; (Concentration 100 μm) 86%.

As for `O=c1[nH]/c(=C\c2c(Cl)cccc2Cl)c(=O)[nH]/c1=C\c1ccccc1` [Compound 21, (3Z,6Z)-6-Benzylidene-3-(2,6-dichlorobenzylidene)-2,5-piperazinedione], the Inhibition of PAI-1 in the first S2251 chromogenic substrate assay reads like this: (Concentration 6.25 μm) 0%; (Concentration 12.5 μm) 0%; (Concentration 25 μm) 2%; (Concentration 50 μm) 35%; (Concentration 100 μm) 79%.

Take `CC(=O)Nc1ccc(/C=c2\[nH]c(=O)/c(=C/c3ccccc3F)[nH]c2=O)cc1` [Compound 71, (3Z,6Z)-3-(4-Acetamidobenzylidene)-6-(2-fluorobenzylidene)-2,5-piperazinedione]: the Inhibition of PAI-1 in the first S2251 chromogenic substrate assay runs as follows: (Concentration 3.75 μm) 1%; (Concentration 7.5 μm) 1%; (Concentration 15 μm) 51%; (Concentration 30 μm) 64%; (Concentration 60 μm) 52%.

In the case of `COc1ccc(/C=c2\[nH]c(=O)/c(=C/c3ccccc3[N+](=O)[O-])[nH]c2=O)cc1` [Compound 28, (3Z,6Z)-6-(4-Methoxybenzylidene)-3-(2-nitrobenzylidene)-2,5-piperazinedione], the Inhibition of PAI-1 in the first S2251 chromogenic substrate assay turned out to be 0% (Concentration 6.25 μm); 1% (Concentration 12.5 μm); 45% (Concentration 25 μm); 74% (Concentration 50 μm); 71% (Concentration 100 μm).

Consider `COc1ccc(/C=c2\[nH]c(=O)/c(=C/c3ccc(CNC(=O)OC(C)(C)C)cc3)[nH]c2=O)cc1` [Compound 56, (3Z,6Z)-(4-Methoxybenzylidene)-6-(4-tert-butoxycarbonylaminomethylbenzylidene)-2,5-piperazinedione], for which the Inhibition of PAI-1 in the first S2251 chromogenic substrate assay (Concentration 12.5 μm) was found to be 2%, the Inhibition of PAI-1 in the first S2251 chromogenic substrate assay (Concentration 25 μm) worked out at 15%, the Inhibition of PAI-1 in the first S2251 chromogenic substrate assay (Concentration 50 μm) was determined as 60% and the Inhibition of PAI-1 in the first S2251 chromogenic substrate assay (Concentration 100 μm) was 82%.

With `COc1ccc(/C=c2\[nH]c(=O)/c(=C/c3ccccc3)[nH]c2=O)cc1OC` [Compound 90, (3Z,6Z)-6-Benzylidene-3-(3,4-dimethoxybenzylidene)-2,5-piperazinedione], the Inhibition of PAI-1 in the first S2251 chromogenic substrate assay came out at 0% (Concentration 6.25 μm); 6% (Concentration 12.5 μm); 33% (Concentration 25 μm); 85% (Concentration 50 μm); 75% (Concentration 100 μm).

On to `CC(=O)OCc1ccc(/C=c2\[nH]c(=O)/c(=C/c3ccccc3)[nH]c2=O)cc1` [Compound 43, (3Z,6Z)-3-(4-Acetoxymethylbenzylidene)-6-benzylidene-2,5-piperazinedione], for which the Inhibition of PAI-1 in the first S2251 chromogenic substrate assay turned out to be 1% (Concentration 6.25 μm); 1% (Concentration 12.5 μm); 3% (Concentration 25 μm); 45% (Concentration 50 μm); 59% (Concentration 100 μm).

In the case of `COc1ccc(/C=c2\[nH]c(=O)/c(=C/c3ccc4ccccc4c3)[nH]c2=O)cc1` [Compound 27, (3Z,6Z)-3-(4-Methoxybenzylidene)-6-(2-naphthylmethylene)-2,5-piperazinedione], the Inhibition of PAI-1 in the first S2251 chromogenic substrate assay reads like this: (Concentration 12.5 μm) 9%; (Concentration 25 μm) 8%; (Concentration 50 μm) 35%; (Concentration 100 μm) 70%.

In the case of `COc1ccc(/C=c2\[nH]c(=O)/c(=C/c3ccc(O)cc3)[nH]c2=O)cc1` [Compound 36, (3Z,6Z)-3-(4-Hydroxybenzylidene)-6-(4-methoxybenzylidene)-2,5-piperazinedione], the Inhibition of PAI-1 in the first S2251 chromogenic substrate assay is, setting by setting: (Concentration 25 μm) 1%; (Concentration 50 μm) 6%; (Concentration 100 μm) 71%.

On to `CC(=O)Nc1ccc(/C=c2\[nH]c(=O)/c(=C/c3c(Cl)cccc3Cl)[nH]c2=O)cc1` [Compound 40, (3Z,6Z)-3-(4-Acetamidobenzylidene)-6-(2,6-dichlorobenzylidene)-2,5-piperazinedione], for which the Inhibition of PAI-1 in the first S2251 chromogenic substrate assay is 1% (Concentration 6.25 μm); 4% (Concentration 12.5 μm); 23% (Concentration 25 μm); 61% (Concentration 50 μm); 61% (Concentration 100 μm).

Take `COc1ccc(/C=c2\[nH]c(=O)/c(=C/c3ccc(C(C)(C)C)cc3)[nH]c2=O)cc1` [Compound 50, (3Z,6Z)-3-(4-methoxybenzylidene)-6-(4-tert-butylbenzylidene)-2,5-piperazinedione]: the Inhibition of PAI-1 in the first S2251 chromogenic substrate assay reads like this: (Concentration 12.5 μm) 2%; (Concentration 25 μm) 22%; (Concentration 50 μm) 37%; (Concentration 100 μm) 62%.

Regarding `CC(=O)Nc1ccc(/C=c2\[nH]c(=O)/c(=C/c3ccccc3)[nH]c2=O)cc1` [Compound 34, (3Z,6Z)-3-(4-Acetamidobenzylidene)-6-benzylidene-2,5-piperazinedione], the Inhibition of PAI-1 in the first S2251 chromogenic substrate assay came to 24% (Concentration 7.5 μm), 76% (Concentration 15 μm), 77% (Concentration 30 μm) and 72% (Concentration 60 μm).
